Experimental data reported in the OPERA property sets (Mansouri et al. 2018).

Details: not given

Compound | melting point [°C] | boiling point [°C] | ready biodegradability | log10 vapour pressure (mmHg) | log10 Koa | log10 Koc (L/kg) | log10 Henry constant (atm·m³/mol)
COc1ccc2c3c1O[C@H]1[C@@H](O)C=C[C@H]4[C@@H](C2)[N@@+](C)([O-])CC[C@@]341 | 232 |  |  |  |  |  | 
NCCCCCO | 38.5 | 222 |  |  |  |  | 
COc1ccc(Cl)cc1Cl | 28.5 | 232 |  |  |  |  | 
C[C@]12CC[C@H](O)CC1=CC[C@@H]1[C@@H]2CC[C@]2(C)C(=O)CC[C@@H]12 | 140 |  |  |  |  |  | 
Clc1c(Cl)c(Cl)c(-c2c(Cl)c(Cl)c(Cl)c(Cl)c2Cl)c(Cl)c1Cl |  |  | not readily biodegradable |  |  |  | 
Brc1cc2ccccc2c2ccccc12 | 64.5 |  |  |  |  |  | 
CN=Cc1ccccc1 |  | 185 |  |  |  |  | 
CC(C)(Cl)Br |  | 95 |  |  |  |  | 
Nc1cccc2ncccc12 | 110 | 310 |  | -4.77 |  |  | 
N#CCCCBr |  | 206 |  |  |  |  | 
O=C(O)Cc1ccc2ccccc2c1 | 142 |  |  |  |  |  | 
Clc1c(Cl)c(Cl)c2c(c1Cl)Oc1c(Cl)c(Cl)c(Cl)c(Cl)c1O2 | 330 | 510 |  | -12.1 | 12.1 |  | 
Cc1cc(C)c(O)cc1O | 126 | 276 |  |  |  |  | 
NC(=O)CCCCC1CCSS1 (configuration not stated) | 128 |  |  |  |  |  | 
O=c1[nH]cc(Br)c(=O)[nH]1 | 310 |  |  |  |  |  | 
CC(C(C)(C)C)C(C)(C)C | -38.7 | 159 |  |  |  |  | 
CCC(=O)C(C)(C)C | -45 | 126 |  |  |  |  | 
CC(C)C1(C)N=C(c2ncccc2C(=O)O)NC1=O (configuration not stated) | 171 |  |  |  |  | 2 | 
CC(=O)CC(C)(C)C | -64 | 126 |  |  |  |  | 
N#Cc1ccc(N)cc1 | 84 |  |  |  |  |  | 
FC(F)=C(F)C(F)(F)C(F)(F)C(F)(F)C(F)(F)F |  | 57 |  |  |  |  | 
OCC(Cc1ccccc1)c1ccccc1 (configuration not stated) | 51 | 310 |  |  |  |  | 
CC(C)=CCC1C(=O)N(c2ccccc2)N(c2ccccc2)C1=O | 156 |  |  |  |  |  | 

Compound | melting point [°C] | boiling point [°C] | ready biodegradability | log10 vapour pressure (mmHg) | log10 Koa | log10 Koc (L/kg) | log10 Henry constant (atm·m³/mol)
Cc1ccc(C)c(C)n1 |  | 172 |  |  |  |  | 
C/C=C/CO |  | 121 |  |  |  |  | 
Cc1ccccc1B(O)O | 166 |  |  |  |  |  | 
CCCC(c1ccccc1)c1ccccc1 | 27 | 287 |  |  |  |  | 
CC(C)CCC[C@@H](C)[C@H]1CC[C@H]2[C@@H]3CC=C4C[C@@H](O)CC[C@]4(C)[C@H]3CC[C@]12C | 145 | 360 |  |  |  |  | 
O=C1OC(c2ccc(O)c3ccccc23)(c2ccc(O)c3ccccc23)c2ccccc21 | 254 |  |  |  |  |  | 
CCOP(=S)(OCC)SCS(=O)C(C)(C)C (configuration not stated) |  |  |  |  |  | 2.18 | 
Clc1cc(Cl)c2nsnc2c1Cl | 122 |  |  |  |  |  | 
CCN=C=S | -5.9 | 132 |  | 1.06 |  |  | 
C=CCNCCC |  | 112 |  |  |  |  | 
CCC(CC)CC(C)C |  | 134 |  |  |  |  | 
Nc1c(F)c(F)c(C(F)(F)F)c(F)c1F |  | 186 |  |  |  |  | 
CCCCCCCCCCCCS(=O)(=O)O |  |  | readily biodegradable |  |  |  | 
O=C(O)CCCCCC1NC(=O)CS1 (configuration not stated) | 140 |  |  |  |  |  | 
CON |  | 49.5 |  | 2.46 |  |  | 
O=[N+]([O-])c1ccc(-c2ccccc2[N+](=O)[O-])cc1 | 93.5 |  |  |  |  |  | 
CC(C)C1CCC(C)(O)CC1 (configuration not stated) |  | 208 |  |  |  |  | 
CNc1ccc(C)cc1 |  | 210 |  |  |  |  | 
CCCC(Br)C(=O)OCC (configuration not stated) |  | 191 |  |  |  |  | 
N#Cc1cccc(C(=O)O)c1 | 219 |  |  |  |  |  | 
CC(CC=O)CC(C)(C)C (configuration not stated) |  | 173 | not readily biodegradable | -1.1 |  |  | 
c1ccc([Se][Se]c2ccccc2)cc1 | 63.5 |  |  |  |  |  | 
COC(CC(OC)OC)OC |  | 183 |  |  |  |  | 

Compound | melting point [°C] | boiling point [°C] | ready biodegradability | log10 vapour pressure (mmHg) | log10 Koa | log10 Koc (L/kg) | log10 Henry constant (atm·m³/mol)
NC[C@H](O)c1ccccc1 | 56.5 |  |  |  |  |  | 
Clc1cc(Cl)c(-c2c(Cl)cc(Cl)cc2Cl)c(Cl)c1 |  |  |  | -4.92 | 8.99 | 6.08 | 
CCCCOCC(C)C |  | 151 |  |  |  |  | 
CCCCCC(C)=O | -35 | 151 |  | 0.586 | 4.15 |  | -3.77
CC(Cl)=CCCl |  | 131 |  |  |  |  | 
Cc1cc(C)c([N+](=O)[O-])c(C)c1 | 44 | 255 |  |  |  |  | 
CCCC(=O)O[C@H]1[C@H](C)O[C@@H](O[C@H]2[C@H](N(C)C)[C@@H](O)[C@H](O[C@H]3[C@@H](CC=O)C[C@@H](C)[C@@H](O)C=CC=CC[C@@H](C)OC(=O)C[C@@H](O)[C@@H]3OC)O[C@@H]2C)C[C@@]1(C)OC(=O)CC | 116 |  |  |  |  |  | 
Cc1c[nH]c(C)c1 |  | 168 |  |  |  |  | 
Fc1cccc(Br)c1 |  | 150 |  |  |  |  | 
CCCCC(C)(C)O |  | 143 |  | 0.317 |  |  | 
N#CCN | 101 |  |  |  |  |  | 
COc1cc(Cl)c(Cl)cc1OC | 83 |  |  |  |  |  | 
CC(=O)N(C(C)=O)c1ccc(/N=N/c2ccccc2C)cc1C | 75 |  |  |  |  |  | 
ClC(c1ccccc1)c1ccccc1 | 16 |  |  |  |  |  | 
CCCCCCCCCCOC(=O)CCCCCCCCC | 9.7 |  |  |  |  |  | 
CCC(CC)C(C)(C)CC |  | 163 |  |  |  |  | 
CCCCC(CC)C(C)C (configuration not stated) |  | 163 |  |  |  |  | 
C[C@]12CC[C@@H]3c4ccc(O)cc4CC[C@H]3[C@@H]1C[C@@H](O)[C@@H]2O | 282 |  |  |  |  |  | 
N#CC(CCN1CCC(C(N)=O)(N2CCCCC2)CC1)(c1ccccc1)c1ccccc1 | 150 |  |  |  |  |  | 
CC(C)(C)c1ccc(O)cc1 |  |  | not readily biodegradable |  |  |  | 
CCCC/C=C/CCCC | -73 | 171 |  |  |  |  | 
N#Cc1cc(F)c(F)c(F)c1F |  | 164 |  |  |  |  | 
Oc1cc(Cl)c(Cl)c(Cl)c1 | 101 | 275 |  |  |  | 3.56 | 

Same assay, conditions: fish

Compound | log10 BCF | log10 biotransformation half-life (days)
c1ccc2c(c1)Cc1ccccc1-2 | 2.72 | 0.7
c1ccc2c(c1)ccc1cc3c(ccc4ccccc43)cc12 |  | 0.21
Nc1ccc(S(=O)(=O)[O][Na])c2ccccc12 | 0.78 | 
CC(C)COc1ccc2ccccc2c1 | 2.8 | 0.23
FC(F)C(F)(F)OCC(Cn1cncn1)c1ccc(Cl)cc1Cl (configuration not stated) |  | 1.23
O=[N+]([O-])c1ccccc1O | 1.34 | 
Nc1ccc(-c2ccc(N)c(Cl)c2)cc1Cl | 2.16 | -0.13
Clc1c(Cl)c(Cl)c(-c2c(Cl)c(Cl)c(Cl)c(Cl)c2Cl)c(Cl)c1Cl | 4.24 | 2.86
Clc1c(Cl)c(Cl)c2c(c1Cl)Oc1c(Cl)c(Cl)c(Cl)c(Cl)c1O2 | 3.12 | 1.16
CCCCCc1ccc(-c2ccccc2)cc1 |  | 0.03
CC(C)(C)c1ccc(O)cc1 | 1.83 | -0.87
